For the assay, the system named is mouse primary DRG neurons. Briefly: Neurite outgrowth assay of DRG neurons (image-based HCS) against paclitaxel-induced neurotoxicity. The format is cell-based. As to conditions: for activation at 1 µM: Mus musculus, DRG neuron; for protective efficacy against paclitaxel-induced neurotoxicity (in words): pretreated, + 50 nM paclitaxel. Here is the method:
All these 19 compounds were then subjected to the neurite outgrowth assay of dorsal root ganglion (DRG) neurons paired with an image-based HCS to analyze whether they had neuroprotective potential. Quantification of neurite outgrowth under different regimens is shown in Figure 3, wherein DRG neurons incubated in 50 nM paclitaxel could cause 60% reduction in neurite outgrowth compared to the control (no drug treatment). […] Taken together, CN016 is selected as a promising lead for further development.
Primary cortical or DRG cells were fixed with 4% paraformaldehyde for 15 min following compound and paclitaxel treatment. After washing with PBS, the fixed cells were permeabilized with PBS containing 0.05% Triton X-100 for 20 min and then blocked with commercial blocking buffer (#GTX30963; GeneTex, USA) at room temperature for 1 h. Subsequently, the cortical cells were stained for the extending processes and synaptic puncta by using anti-MAP2 (#MBS502140, 1:500; Mybiosource, USA) and anti-synaptophysin (#ab32127, 1:500; Abcam, UK) overnight. DRG cells were stained for the neurite and neuron nucleus by using anti-β III tubulin (#D71G9, 1:600; Cell Signaling, USA) and anti-NeuN monoclonal antibody (#MAB377, 1:400; Millipore, USA) overnight. On the second day, the samples were washed for 30 min with wash buffer and incubated with secondary antibodies (Alexa-488, 647 1:600; Thermo Fisher, USA) and 4 μg/mL Hoechst 33258 (#94403-1ML, 1:100; Merck, USA) at room temperature for 1 h. In the initial experiments of screening the potential neuroprotective compound for CIPN, ImageXpress^Micro (IXM) high-content imaging system (Molecular Devices, USA) driven by MetaXpress software was used. Images of treated cells were automatically acquired by using a 10× objective. Twenty-one images per well were taken in each of three channels (DAPI, FITC, and Cy5) to create a whole view of the entire neural network. The integrity of the neural network was evaluated using TIF images by importing them into MetaXpress software for analysis using the module for multiparameter, such as Neurite Outgrowth, Cell Scoring, and Transfluor. Furthermore, the score of synaptogenesis was analyzed in AcuityXpress software (Molecular Devices, USA).

[1] abbreviates: Table S2, test compound 1000 nM + paclitaxel 50 nM minus paclitaxel 50 nM, read-out: Neuroprotection rate = (A-B) ± S.E.M [%].
Where [2] appears, read: supplementary CSV, test compound 1000 nM, read-out: A-B (A: neurite outgrowth (% of control) of test compound (1000 nM) + paclitaxel (50 nM), B: of paclitaxel (50 nM)).
Setting [3] is: Table 1, A: neurite outgrowth (% of control) of test compound 1000 nM + paclitaxel 50 nM, B: paclitaxel 50 nM alone, DRG neurons, read-out: Neuroprotection rate = (A-B)±S.E.M [%].

The values below come from article PMC8958505, “Discovery of Potential Neuroprotective Agents against Paclitaxel-Induced Peripheral Neuropathy” (Journal of Medicinal Chemistry, 2022).

Where a name gives a salt, the structure may show the parent alone. Read-outs that look alike come from different tables or passages of the source.

`O=C(CCNC(=O)C1(O)CC(O)C(O)C(O)C1)N1CCC(Nc2cc(N3CCOCC3)nc(NCc3cn(CCCNCCO)nn3)n2)CC1` (stereo not drawn) [CN007, 1,3,4,5-Tetrahydroxy-cyclohexanecarboxylic Acid (3-{4-[2-({1-[3-(2-Hydroxy-ethylamino)-propyl]-1H-[1,2,3]triazol-4-ylmethyl}-amino)-6-morpholin-4-yl-pyrimidin-4-ylamino]-piperidin-1-yl}-3-oxo-propyl)-amide Hydrochloride Salt]: the activation at 1 µM under setting [1] stood at 7 ± 1.05% and the activation at 1 µM under setting [2] turned out to be 7%.
For the molecule `CCOP(=O)(CCN1CCC(Nc2cc(N3CCOCC3)nc(NCc3cn(CCC(C)O)nn3)n2)CC1)OCC` (stereo not drawn) [CN014, {2-[4-(2-{[1-(3-Hydroxy-butyl)-1H-[1,2,3]triazol-4-ylmethyl]-amino}-6-morpholin-4-yl-pyrimidin-4-ylamino)-piperidin-1-yl]-ethyl}-phosphonic Acid Diethyl Ester], the activation at 1 µM was 9 ± 2% under setting [1] and 9% under setting [2]. Also, the “protective efficacy against paclitaxel-induced neurotoxicity (in words)” value (DRG neurons) is “exhibited protective efficacy”.
Taken in the same sequence, the figures for `COC(=O)CCN1CCC(Nc2cc(N3CCOCC3)nc(NCc3cn(CCCO)nn3)n2)CC1` [CN009, 3-[4-(2-{[1-(3-Hydroxy-propyl)-1H-[1,2,3]triazol-4-ylmethyl]-amino}-6-morpholin-4-yl-pyrimidin-4-ylamino)-piperidin-1-yl]-propionic Acid Methyl Ester] were 15 ± 1.28%, 15% and “exhibited protective efficacy”.
Take `CCOP(=O)(CCN1CCC(Nc2cc(N3CCOCC3)nc(NCc3cn(CCCOCCC(=O)OC)nn3)n2)CC1)OCC` [CN015, 3-(3-{4-[(4-{1-[2-(Diethoxy-phosphoryl)-ethyl]-piperidin-4-ylamino}-6-morpholin-4-yl-pyrimidin-2-ylamino)-methyl]-[1,2,3]triazol-1-yl}-propoxy)-propionic Acid Methyl Ester]: the activation at 1 µM by setting is: under setting [1], 3 ± 1.11%; under setting [2], 3%.
As for `O=P(O)(O)CCN1CCC(Nc2cc(N3CCOCC3)nc(NCc3cn(CCCCO)nn3)n2)CC1` [CN021, {2-[4-(2-{[1-(4-Hydroxy-butyl)-1H-[1,2,3]triazol-4-ylmethyl]-amino}-6-morpholin-4-yl-pyrimidin-4-ylamino)-piperidin-1-yl]-ethyl}-phosphonic Acid Hydrobromide Salt], the activation at 1 µM reads like this: under setting [3], 8 to 11%; under setting [2], 11%.
In the case of `CC(C)(O)CCn1cc(CNc2nc(NC3CCN(CCP(=O)(O)O)CC3)cc(N3CCOCC3)n2)nn1` [CN027, {2-[4-(2-{[1-(3-Hydroxy-3-methyl-butyl)-1H-[1,2,3]triazol-4-ylmethyl]-amino}-6-morpholin-4-yl-pyrimidin-4-ylamino)-piperidin-1-yl]-ethyl}-phosphonic Acid Hydrobromide Salt], the activation at 1 µM reads like this: under setting [3], 5 ± 0.93%; under setting [2], 5%.
As to `NCCCn1cc(CNc2nc(NC3CCN(C(=O)CCNC(=O)C4(O)CC(O)C(O)C(O)C4)CC3)cc(N3CCOCC3)n2)nn1` (stereo not drawn) [CN006, 1,3,4,5-Tetrahydroxy-cyclohexanecarboxylic Acid {3-[4-(2-{[1-(3-Amino-propyl)-1H-[1,2,3]triazol-4-ylmethyl]-amino}-6-morpholin-4-yl-pyrimidin-4-ylamino)-piperidin-1-yl]-3-oxo-propyl}-amide Hydrochloride Salt], the activation at 1 µM by setting is: under setting [1], 4 ± 1.44%; under setting [2], 4%.
Turning to `CC(O)Cn1cc(CNc2nc(NC3CCN(CCP(=O)(O)O)CC3)cc(N3CCOCC3)n2)nn1` (stereo not drawn) [CN025, {2-[4-(2-{[1-(2-Hydroxy-propyl)-1H-[1,2,3]triazol-4-ylmethyl]-amino}-6-morpholin-4-yl-pyrimidin-4-ylamino)-piperidin-1-yl]-ethyl}-phosphonic Acid Hydrobromide Salt], the activation at 1 µM runs as follows: under setting [3], 4 ± 0.63%; under setting [2], 4%.
